Key:
Assay type in all cases: in vivo
[1] = test system: Spodoptera littoralis; experiment: injection into fifth instar Spodoptera littoralis larvae (Example D); settings: 5% solution in DMSO/acetone (50:50), 1.0 ul injected, 2 days, 25° C.
Method: The compounds of the invention were also tested by dissolving them in DMSO/acetone (50:50) to give a 5% solution, 1.0 ul of which was injected into fifth instar Spodoptera littoralis larvae. Mortality was assessed after 2 days at 25° C.

[2] = test system: Tetranychus urticae; experiment: leaf discs of infested french bean sprayed (Example C); settings: 2 days, 25° C.
Method: (§1) The compounds of the invention were tested by dissolving them in acetone (5%) and then diluting in water/`Synperonic` (94.5%/0.5%) to give a water emulsion. ("Synperonic" is a R.T.M. of I.C.I. plc and is nonylphenol ethoxylate in aqueous solution to give 27%; available from B.D.H., Poole, Dorset, England). The solution was then used to treat the following insects.
Leaf discs of infested french bean were sprayed with the solution containing the compound. Mortality was assessed after 2 days at 25° C.

[3] = test system: Sitophilus granarius; experiment: adults on treated wheat, mortality after 6 days, Sitophilus (Example C); settings: 25° C.
Method: as §1
(§2) 20 adult Sitophilus and Tribolium were added to 10 g wheat which had been previously treated with 2 ml of the solution containing the compound. Mortality was assessed after 6 days at 25° C.

[4] = test system: Musca domestica; experiment: spray onto 20 female Musca, mortality after 2 days (Example C); settings: 25° C.
Method: as §1
20 female Musca were contained in a cardboard cylinder with gauze over either end. Solution containing the compound was sprayed onto the insects so enclosed and mortality assessed after 2 days at 25° C.

[5] = test system: S. granarius; experiment: track-spray of acetone-water solution, S. granarius (Example A); settings: acetone-water (5:95)
Method: (§3) The compound of Example 1 was administered in acetone-water (5:95) by track-spray to a range of insect and acarine species, giving the following results.

[6] = test system: T. castaneum; experiment: track-spray of acetone-water solution, T. castaneum (Example A); settings: acetone-water (5:95)
Method: as §3

[7] = test system: Plutella xylostella; experiment: fourth instar Plutella larvae sprayed and added to sprayed chinese cabbage leaf (Example C); settings: 2 days, 25° C.
Method: as §1
7 Fourth instar Plutella larvae were sprayea with the solution containing the compound and added to a chinese cabbage leaf which had been similarly sprayed and left to dry. Mortality was assessed after 2 days at 25° C.

[8] = test system: A. aegypti (larvae); experiment: track-spray of acetone-water solution, A. aegypti larvae (Example A); settings: acetone-water (5:95)
Method: as §3

[9] = test system: C. quinquefasciatus; experiment: track-spray of acetone-water solution, C. quinquefasciatus (Example A); settings: acetone-water (5:95)
Method: as §3

[10] = test system: Myzus persicae; experiment: adult Myzus on chinese cabbage leaf disc sprayed (Example C); settings: 2 days, 25° C.
Method: as §1
10 adult Myzus were placed on a leaf disc of chinese cabbage. 24 hours later the disc was sprayed with the solution containing the compound. Mortality was assessed after 2 days at 25° C.

[11] = test system: M. domestica; experiment: track-spray of acetone-water solution, M. domestica (Example A); settings: acetone-water (5:95)
Method: as §3

[12] = test system: Blatella germanica; experiment: activity against Blatella germanica with piperonyl butoxide; settings: at up to 10 μg per insect (+piperonyl butoxide)
[13] = test system: Plutella xylostella; experiment: discs of chinese cabbage infested with second instar Plutella larvae sprayed (Example C); settings: 2 days, 25° C.
Method: as §1
or Discs of chinese cabbage infested with c8 second instar Plutella larvae were sprayed with the solution containing the compound. Mortality was assessed after 2 days at 25° C.

[14] = test system: Diabrotica undecimpunctata; experiment: 2nd instar larvae and their food sprayed on filter paper (Example C); settings: at 1000 ppm; 2nd instar larvae, 2 days
Method: as §1
2nd instar larvae and their food were sprayed on filter paper with the solution containing the compound. Activity was assessed at 2 days.

[15] = test system: Spodoptera littoralis; experiment: sprayed leaves infested with newly hatched Spodoptera larvae (Example C); settings: at 200 ppm, +pip but, 3 days
Method: as §1
Uninfested leaves were sprayed with the test solution containing the compound (+pip but) and left to dry. These were then infested with 10 newly hatched larvae. Mortality was assessed after 3 days.

[16] = test system: Tribolium castaneum; experiment: adults on treated wheat, mortality after 6 days, Tribolium (Example C); settings: at 1000 ppm, 25° C.
Method: as §1, §2

## CC(C=CCCCCCCCOc1cccnc1Br)=CC(=O)NCC(C)C [Example 29]
[1]
  active (mortality): active
[2]; at 1000 ppm
  active (mortality): active

## C=C(C)CNC(=O)C=CC=CCCCCCCCOc1cc(C(F)(F)F)cc(C(F)(F)F)n1 [Example 21]
[2]; at 1000 ppm
  active (mortality): active
[3]
  active (mortality): active
[4]; at 200 ppm
  active (mortality): active

## CC(C)CNC(=O)C=CC=CCCCCCCCOc1cccc(Cl)n1 [Example 1, N-Isobutyl 12-(6'-chloro-2'-pyridyloxy)dodeca-2,4-dienamide]
[5]
  LD50: > 1000 ppm
[6]
  LD50: > 1000 ppm
[7]; at 1000 ppm
  active (mortality): active
[8]
  LD50: > 1000 ppm
[9]
  LD50: > 1000 ppm
[10]; at 200 ppm
  active (mortality): active
[2]; at 1000 ppm
  active (mortality): active
[4]; at 200 ppm
  active (mortality): active
[11]
  LD50: about 200 ppm

## CC(/C=C/CCCCCCCOc1ncc(C(F)(F)F)cc1Cl)=C(/F)C(=O)NCC(C)C [Example 39, (2Z,4E)N-Isobutyl 2-fluoro-3-methyl-12-(3-chloro-5-trifluoromethyl-2-pyridyloxy) dodeca-2,4-dienamide]
[12]
  active: active

## CC(C=CCCCCCCCOc1cccc(C(F)(F)F)n1)=CC(=O)NCC(C)C [Example 8]
[7]; at 200 ppm
  active (mortality): active
[1]
  active (mortality): active
[2]; at 200 ppm
  active (mortality): active
[4]; at 1000 ppm
  active (mortality): active

## CC(C)CNC(=O)C=CC=CCCCCCCCOc1ncccc1C(F)(F)F [Example 7]
[7]; at 1000 ppm
  active (mortality): active
[1]
  active (mortality): active

## CC(C=CCCCCCCCOc1cc(C(F)(F)F)cc(Cl)n1)=CC(=O)NCC(C)C [Example 11]
[7]; at 1000 ppm
  active (mortality): active
[1]
  active (mortality): active
[2]; at 1000 ppm
  active (mortality): active
[4]; at 1000 ppm
  active (mortality): active

## CC(/C=C/CCCCCCOCc1cccc(Cl)n1)=C\C(=O)NCC(C)C [Example 36, (2E,4E) N-Isobutyl 11-(6'-chloro-2'-pyridylmethoxy) -3-methylundeca-2,4-dienamide]
[2]; at 1000 ppm
  active (mortality): active
[13]; at 1000 ppm
  active (mortality): active

## CC1(CNC(=O)/C=C/C=C/CCCCCCCOc2cc(C(F)(F)F)cc(C(F)(F)F)n2)OCCO1 [Example 22, (2E,4E) N-(2-methyl-1,3-dioxalan-2-yl)-methyl 12-(4',6'-bistrifluoromethyl-2-pyridyloxy)-dodeca-2,4-dienamide]
[3]
  active (mortality): active
[4]; at 200 ppm
  active (mortality): active

## CC(/C=C/CCCCCCCOc1ncc(C(F)(F)F)cc1C(F)(F)F)=C(/F)C(=O)NCC(C)C [Example 38, (2Z,4E)N-Isobutyl 2-fluoro-3-methyl-12-(3,5-bistrifluoromethyl-2-pyridyloxy)dodeca-2,4-dienamide]
[14]
  active: active
[7]; at 40 ppm
  active (mortality): active
[15]
  active (mortality): active
[2]; at 200 ppm
  active (mortality): active
[12]
  active: active
[4]; at 1000 ppm
  active (mortality): active

## CC(C)CNC(=O)C=CC=CCCCCCCCOc1ccc(Cl)cn1 [Example 17]
[7]; at 200 ppm
  active (mortality): active
[16]
  active (mortality): active
[2]; at 1000 ppm
  active (mortality): active
[4]; at 200 ppm
  active (mortality): active

## CC(C)CNC(=O)/C=C/C=C/CCCCCCCOc1cc(C(F)(F)F)nc(C(F)(F)F)c1 [Example 35, (2E,4E) N-Isobutyl 12-(2',6'-bistrifluoromethyl-4'-pyridyloxy)-dodeca-2,4-dienamide]
[1]
  active (mortality): active
[3]
  active (mortality): active
[13]; at 200 ppm
  active (mortality): active
[4]; at 1000 ppm
  active (mortality): active

## CC(C)CNC(=O)/C=C/C=C/CCCCCCCOc1ccncc1 [Example 31, (2E,4E) N-Isobutyl 12-(4'-pyridyloxy)-dodeca-2,4-dienamide]
[10]; at 1000 ppm
  active (mortality): active
[3]
  active (mortality): active

## CC(C)CNC(=O)/C=C/C=C/CCCCCCCOc1cc(C(F)(F)F)cc(C(F)(F)F)n1 [Example 19, (2E,4E) N-isobutyl 12-(4',6'-bistrifluoromethyl-2'-pyridyloxy) -dodeca-2,4-dienamide]
[3]
  active (mortality): active
[13]; at 200 ppm
  active (mortality): active
[4]; at 200 ppm
  active (mortality): active

## CC(C)CNC(=O)C=CC=CCCCCCCCOc1nc(C(F)(F)F)ccc1C(F)(F)F [Example 20]
[13]; at 200 ppm
  active (mortality): active

— patent publication US5380732A, “Pesticidal compounds” (priority 1986, dated 1995)
